Results published in patent US4347242A, “Hypocalcaemic peptides and process for their manufacture” (Ciba-Geigy Corporation, priority 1978, dated 1982).
Several values for one entry are separate records, joined by “and”; a condition that tells them apart may be missing. Identical values can stand only once.

Assays:
rat = rat hypocalcaemic activity test described by Kumar et al, J. Endocrinology 33, page 470 [1965] (MRC units); assay type: in vivo; conditions: per mg of peptide or product
[1] = tested on: patients with increased bone turn over; test: lowering of blood calcium level in patients with increased bone turn over; assay type: in vivo, human; conditions: intravenous, intramuscular or subcutaneous injection of 0.01 to 5 mg, e.g. in 0.1 molar acetate buffer pH 4.6
rats = test: lowering of plasma calcium and plasma phosphate level in tests on rats weighing 50 to 150 g; assay type: in vivo, rat

| Compound | activity in the rat (rat) | calcium level of the blood [1] | plasma calcium level (rats) | plasma phosphate level (rats) |
| --- | --- | --- | --- | --- |
| CC[C@H](C)[C@H](NC(=O)[C@H](C)NC(=O)[C@@H](NC(=O)[C@H](CCC(N)=O)NC(=O)[C@@H]1CCCN1C(=O)[C@H](Cc1ccccc1)NC(=O)[C@@H](NC(=O)[C@H](Cc1c[nH]cn1)NC(=O)[C@H](Cc1ccccc1)NC(=O)[C@H](CCCCN)NC(=O)[C@H](CC(N)=O)NC(=O)[C@H](Cc1ccccc1)NC(=O)[C@H](CC(=O)O)NC(=O)[C@H](CCC(N)=O)NC(=O)[C@@H](NC(=O)[C@H](Cc1ccc(O)cc1)NC(=O)[C@@H](NC(=O)CNC(=O)[C@H](CC(C)C)NC(=O)[C@H](CCSC)NC(=O)[C@@H]1CSSC[C@H](N)C(=O)NCC(=O)N[C@@H](CC(N)=O)C(=O)N[C@@H](CC(C)C)C(=O)N[C@@H](CO)C(=O)N[C@@H]([C@@H](C)O)C(=O)N1)[C@@H](C)O)[C@@H](C)O)[C@@H](C)O)[C@@H](C)O)C(=O)NCC(=O)N[C@H](C(=O)NCC(=O)N[C@@H](C)C(=O)N1CCC[C@H]1C(N)=O)C(C)C [HT-C2] | 100 to 200 MRC units per mg and 100-200 MRC units per mg |  |  |  |
| Human calcitonin |  | lowers the calcium level of the blood | lowers | lowers |
